One test has as its target T1, L-type calcium channels (Rattus norvegicus, UniProt P22002).
T1 construct: The thoracic aorta isolated from a Wistar rat was cut to obtain ring-shaped samples; from tissue; host or cells: isolated Wistar rat thoracic aorta rings, endothelium removed
The experiment in a line: Antagonistic activity on L-type calcium channels (relaxation of KCl-induced contraction of isolated rat thoracic aorta). As to conditions: isolated Wistar rat thoracic aorta; for L-type inhibition pIC50: Table 21. The protocol:
(Test Example) Antagonistic Activity on L-Type Calcium Channels:
The activity of the dihydropyrimidine derivatives of the present invention to inhibit L-type calcium channels was determined by the following method in which the relaxation reaction on the KCl-induced contraction of isolated rat thoracic aorta was employed.
1) Method of Preparation of Rat Thoracic Aorta:
The thoracic aorta isolated from a Wistar rat was cut to obtain ring-shaped samples having a width of about 3 mm. The endothelial cells of the samples were mechanically removed. The samples were then suspended in a strain gage in Tyrode's solution (158.3 mM of NaCl, 4.0 mM of KCl, 1.05 mM of MgCl2, 0.42 mM of NaH2PO4, 10 mM of NaHCO, 2 mM of CaCl2 and 5 mM of glucose) in which a gaseous mixture of O2 (95%) and CO2 (5%) was introduced. A static tension of 2 g was applied hereto. The tension of the blood vessel was amplified with a transducer and a tension amplifier (EF-601G; Nihon Koden Corporation) and recorded with a multi-pen recorder (Rikadenki Kogyo Co., Ltd.). The experiments were conducted at 37° C.
2) Measurment of Relaxation Response Against KCl-Induced Contraction:
After the tension had been stabilized, the solution in the sample tank was replaced with High K^+ Tyrode's solution (112.3 mM of NaCl, 50 mM of KCl, 1.05 mM of MgCl2, 0.42 mM of NaH2PO4, 10 mM of NaHCO3, 2 mM of CaCl2 and 5 mM of glucose) to conduct the contraction reaction. Thirty minutes after, the solution in the sample tank was replaced with the normal Tyrode's solution. The solution in the sample tank was again replaced with the High K^+ Tyrode's solution and the contraction reaction was observed. After attaining the maximum contraction reaction, the test compound was cumulatively added at intervals of […] to attain concentrations of 10^−9, 10^−8, 10^−7 and 10^−6 M. The inhibitory rate of the test compound on the maximum contraction reaction was employed as the index of the inhibition activity on L-type calcium channels.

The target of a further test is T2, N-type calcium channels (Homo sapiens, UniProt Q00975).
T2 construct: Human neuroblastoma cells IMR-32 were obtained from ATCC; host or cells: IMR-32 human neuroblastoma cells, differentiated with dibutyl cAMP and 5-bromodeoxyuridine
T2 sequence (Q00975 whole entry): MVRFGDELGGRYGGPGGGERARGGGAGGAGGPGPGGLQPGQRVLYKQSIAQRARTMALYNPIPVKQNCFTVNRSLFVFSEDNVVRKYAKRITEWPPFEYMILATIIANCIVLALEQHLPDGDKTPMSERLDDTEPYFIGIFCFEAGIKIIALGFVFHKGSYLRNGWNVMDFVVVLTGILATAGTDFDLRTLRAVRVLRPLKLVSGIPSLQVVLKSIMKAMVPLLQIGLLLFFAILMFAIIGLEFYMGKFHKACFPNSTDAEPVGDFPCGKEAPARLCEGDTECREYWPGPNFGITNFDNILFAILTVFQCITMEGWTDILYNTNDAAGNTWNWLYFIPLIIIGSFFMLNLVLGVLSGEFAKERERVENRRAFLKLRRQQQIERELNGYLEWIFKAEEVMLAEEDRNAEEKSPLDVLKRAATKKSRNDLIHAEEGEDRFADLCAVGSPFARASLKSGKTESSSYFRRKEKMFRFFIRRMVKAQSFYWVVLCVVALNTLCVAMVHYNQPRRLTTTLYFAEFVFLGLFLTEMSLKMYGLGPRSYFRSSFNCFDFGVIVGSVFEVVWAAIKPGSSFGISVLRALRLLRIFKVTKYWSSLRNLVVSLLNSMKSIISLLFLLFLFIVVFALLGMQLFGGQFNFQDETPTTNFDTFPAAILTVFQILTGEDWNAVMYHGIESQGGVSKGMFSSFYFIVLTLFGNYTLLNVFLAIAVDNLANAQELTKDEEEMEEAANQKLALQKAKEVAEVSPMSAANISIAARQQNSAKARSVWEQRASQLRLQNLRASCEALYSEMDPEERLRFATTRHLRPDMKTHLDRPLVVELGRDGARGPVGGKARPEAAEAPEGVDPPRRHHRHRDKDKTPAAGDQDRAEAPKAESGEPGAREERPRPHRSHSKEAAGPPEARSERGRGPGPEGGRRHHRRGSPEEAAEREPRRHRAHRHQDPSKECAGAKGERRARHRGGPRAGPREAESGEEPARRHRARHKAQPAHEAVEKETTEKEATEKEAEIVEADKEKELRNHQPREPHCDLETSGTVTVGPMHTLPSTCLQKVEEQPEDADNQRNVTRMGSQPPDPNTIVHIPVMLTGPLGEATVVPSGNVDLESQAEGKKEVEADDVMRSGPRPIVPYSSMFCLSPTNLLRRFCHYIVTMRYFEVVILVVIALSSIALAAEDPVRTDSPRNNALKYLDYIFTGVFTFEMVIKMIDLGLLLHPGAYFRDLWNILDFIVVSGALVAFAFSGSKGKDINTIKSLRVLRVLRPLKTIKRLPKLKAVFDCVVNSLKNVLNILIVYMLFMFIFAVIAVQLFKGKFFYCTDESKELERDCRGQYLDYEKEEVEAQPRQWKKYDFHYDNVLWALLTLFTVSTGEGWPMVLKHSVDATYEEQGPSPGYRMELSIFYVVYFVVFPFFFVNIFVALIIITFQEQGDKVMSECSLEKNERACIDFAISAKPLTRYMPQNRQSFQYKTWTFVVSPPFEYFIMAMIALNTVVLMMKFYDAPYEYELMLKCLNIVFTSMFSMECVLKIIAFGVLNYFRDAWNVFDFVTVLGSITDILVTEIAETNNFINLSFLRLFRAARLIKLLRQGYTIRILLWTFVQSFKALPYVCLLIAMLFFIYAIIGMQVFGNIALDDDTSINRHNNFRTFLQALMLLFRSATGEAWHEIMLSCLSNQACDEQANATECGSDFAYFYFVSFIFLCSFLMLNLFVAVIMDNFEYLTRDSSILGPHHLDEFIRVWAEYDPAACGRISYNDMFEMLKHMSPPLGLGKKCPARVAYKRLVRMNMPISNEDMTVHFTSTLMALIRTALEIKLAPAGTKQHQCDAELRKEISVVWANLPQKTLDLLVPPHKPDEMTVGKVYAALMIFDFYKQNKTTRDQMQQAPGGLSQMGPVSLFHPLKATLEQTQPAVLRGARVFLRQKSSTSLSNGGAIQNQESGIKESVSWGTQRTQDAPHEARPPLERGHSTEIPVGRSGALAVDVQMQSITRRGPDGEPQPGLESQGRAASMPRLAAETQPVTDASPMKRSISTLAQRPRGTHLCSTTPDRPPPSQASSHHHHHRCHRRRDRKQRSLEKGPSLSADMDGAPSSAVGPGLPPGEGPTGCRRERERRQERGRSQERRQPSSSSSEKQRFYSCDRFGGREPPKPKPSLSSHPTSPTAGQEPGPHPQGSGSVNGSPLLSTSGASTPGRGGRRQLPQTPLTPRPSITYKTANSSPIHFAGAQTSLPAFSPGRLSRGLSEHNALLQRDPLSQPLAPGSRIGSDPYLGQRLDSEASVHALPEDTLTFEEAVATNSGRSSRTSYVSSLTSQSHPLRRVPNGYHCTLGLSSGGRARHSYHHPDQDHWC
T2 sequence (Q02641 whole entry partner): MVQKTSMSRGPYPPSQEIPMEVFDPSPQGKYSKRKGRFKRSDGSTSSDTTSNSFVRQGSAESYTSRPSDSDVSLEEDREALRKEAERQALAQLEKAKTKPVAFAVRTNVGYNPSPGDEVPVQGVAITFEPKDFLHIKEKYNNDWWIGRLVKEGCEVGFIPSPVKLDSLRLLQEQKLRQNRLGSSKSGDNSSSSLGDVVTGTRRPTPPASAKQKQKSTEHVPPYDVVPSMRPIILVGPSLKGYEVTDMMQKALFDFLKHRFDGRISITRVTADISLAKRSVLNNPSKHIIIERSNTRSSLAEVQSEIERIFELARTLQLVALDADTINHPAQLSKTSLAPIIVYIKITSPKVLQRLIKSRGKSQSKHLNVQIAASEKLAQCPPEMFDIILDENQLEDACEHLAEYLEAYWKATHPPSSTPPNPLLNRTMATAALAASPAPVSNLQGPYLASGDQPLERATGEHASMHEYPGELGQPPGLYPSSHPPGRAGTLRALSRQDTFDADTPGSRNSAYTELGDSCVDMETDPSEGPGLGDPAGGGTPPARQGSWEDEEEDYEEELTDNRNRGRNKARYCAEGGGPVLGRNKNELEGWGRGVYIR
T2 sequence (P54289 25-956 partner limits assumed): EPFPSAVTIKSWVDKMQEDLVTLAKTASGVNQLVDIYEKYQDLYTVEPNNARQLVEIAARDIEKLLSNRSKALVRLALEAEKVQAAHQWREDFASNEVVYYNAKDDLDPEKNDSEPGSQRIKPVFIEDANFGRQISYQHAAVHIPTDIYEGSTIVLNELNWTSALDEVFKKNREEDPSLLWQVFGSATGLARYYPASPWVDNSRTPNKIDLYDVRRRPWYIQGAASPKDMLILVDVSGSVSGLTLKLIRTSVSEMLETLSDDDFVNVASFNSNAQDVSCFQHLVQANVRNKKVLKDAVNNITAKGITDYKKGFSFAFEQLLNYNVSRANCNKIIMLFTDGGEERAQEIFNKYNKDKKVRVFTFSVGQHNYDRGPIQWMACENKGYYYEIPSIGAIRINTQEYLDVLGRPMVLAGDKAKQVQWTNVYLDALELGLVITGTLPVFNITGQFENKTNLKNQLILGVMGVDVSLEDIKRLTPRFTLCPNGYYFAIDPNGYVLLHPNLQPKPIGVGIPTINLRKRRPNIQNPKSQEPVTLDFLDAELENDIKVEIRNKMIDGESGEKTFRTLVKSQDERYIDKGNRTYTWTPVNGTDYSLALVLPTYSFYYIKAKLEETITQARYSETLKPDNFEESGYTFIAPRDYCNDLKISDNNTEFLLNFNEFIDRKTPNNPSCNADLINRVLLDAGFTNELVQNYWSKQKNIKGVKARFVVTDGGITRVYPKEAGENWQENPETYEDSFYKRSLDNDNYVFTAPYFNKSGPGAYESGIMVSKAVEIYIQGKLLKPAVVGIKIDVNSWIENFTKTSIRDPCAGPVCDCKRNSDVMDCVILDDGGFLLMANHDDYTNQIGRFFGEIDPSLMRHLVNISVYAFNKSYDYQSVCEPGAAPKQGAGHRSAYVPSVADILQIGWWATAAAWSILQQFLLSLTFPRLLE
T2 sequence (P54289 957-1103 partner limits assumed): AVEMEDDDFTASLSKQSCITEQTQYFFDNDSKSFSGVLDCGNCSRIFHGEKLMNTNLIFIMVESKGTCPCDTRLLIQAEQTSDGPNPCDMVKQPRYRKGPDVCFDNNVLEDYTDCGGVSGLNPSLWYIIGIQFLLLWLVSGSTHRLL
In words: Antagonistic activity on N-type calcium channels (fluorescence dye method, IMR-32 cells). The class given is cell-based. The conditions noted are these: for inhibition at 10 µM: 10 μM test compound, read-out: N-type inhibition (inhibition rate (%) at 10 μM); for IC50: 60 mM KCl stimulation, 1 μM Nifedipine, Table 20, read-out: N-type inhibition pIC50 (converted). The protocol: (Test Example) Antagonistic Activity on N-Type Calcium Channels (Fluorescence Dye Method):
Human neuroblastoma cells IMR-32 were obtained from ATCC (American Type Culture Collection). The medium used was a phenol red-free Eagle minimum essential medium containing earle's salts (GIBCO) supplemented with 2 mM of L-glutamine (GIBCO), 1 mM of sodium pyruvate (pH 6.5) (GIBCO), antibiotic/antimicotic mixture (GIBCO) and 10% fetal calf serum (Cell Culture Technologies). Three ml of 1×10^5 cells/ml IMR-32 were spread on a 35 mm diameter glass dish (Iwaki Glass Co., Ltd.) which was treated with poly-L-lysin (SIGMA) and collagen (COLLAGEN VITROGEN 100, Collagen Co.). One day after cultivation, 1 mM (final concentration) of dibutyl cAMP and 2.5 μM (final concentration) of 5-bromodeoxyuridine (SIGMA) were added. After the culture for additional 10 to 14 days, the cells were subjected to the activity determination.
The medium for IMR-32 cells thus prepared was replaced with 1 ml of Phenol Red-free Eagle minimum essential medium (GIBCO) containing 2.5 μM fura-2/AM (Dojin Kagaku, Co.) and earle's salts supplement, and the incubation was conducted at 37° C. for 30 minutes. Then the medium was replaced with a recording medium (20 mM of HEPES-KOH, 115 mM of NaCl, 5.4 mM of KCl, 0.8 mM of MgCl2, 1.8 mM of CaCl2 and 13.8 mM of D-glucose). Antagonistic activity on N-type calcium channels was determined and analyzed using a fluorescence microscope (Nikon Corporation) and an image analysis device ARGUS 50 (Hamamatsu Photonics). In particular, a recording medium (20 mM of HEPES-KOH, 115 mM of NaCl, 5.4 mM of KCl, 0.8 mM of MgCl2, 1.8 mM of CaCl2 and 13.8 mM of D-glucose) containing 1 μM of Nifedipine was given to the cells by reflux by a Y-tube method for 2 minutes. Then a stimulating agent containing 60 mM of potassium chloride was rapidly given by the Y-tube method. The calcium concentration change in the cells was examined in terms of N-type calcium channel activity. Stimulating agents containing 60 mM of potassium chloride and 0.1, 1 or 10 μM of test compound were successively and rapidly given to the same cells by the Y-tube method to determine the change in calcium concentration in the cells on this occasion. Antagonistic activity on N-type calcium channel was thus calculated from the inhibition rates.
The same procedure as that of the above-described tests of the N-type calcium channel antagonistic activity of the compounds obtained in the Examples was repeated except for the following changes: stimulating agents containing 60 mM of potassium chloride and 0.1, 1 or 10 μM of test compound were successively and rapidly given by the Y-tube method. A change in calcium concentration in the cells was determined.

The test system of a further test is SD rats. The experiment in a line: Analgesic action in the formalin test. The class given is in vivo, rat. As to conditions: 3 mg/kg p.o. 3 hours before formalin injection, counted for 60 minutes, average±standard error, control group 116 ± 8. Here is the method: (Test Example) Determination of Analgesic Action (Analgesic Action in the Formalin Test) 1) Preparation of Solution of a Test Compound and its Administration
The compound was weighed and ground in a mortar. While grinding the powder, 0.5% tragacanth solution was added thereto so that a suspension was prepared to have a concentration of 0.6 mg/ml.
Three hours before the formalin injection, the compound suspension was orally administered to SD rats at a volume of 5 ml/kg (dosage; 3 mg/kg, p.o.). In the control group, 0.5% tragacanth solution was orally administered to SD rats at a volume of 5 ml/kg 3 hours before formalin injection.
2) Determination of Analgesic Action in the Formalin Test
The SD rats to which the compound was administered were introduced to a capsule. They were settled under halothane (2 to 4% in 3 L/min of oxygen gas flow rate) and 100 μl of 5% formalin solution was injected subcutaneously to their dorsal surface of left legs. After injection, determination was started when the rats came out from the anesthetic state (based on recovery of righting reflex). The number of flinching under the influence of formalin injection was counted for 60 minutes (Reference: J. Neurosci. 14: 4882-4890 (1994)). The results are shown as “average±standard error” in Table 22.

The mark [1] stands for this setting: Table 20, read-out: L-type inhibition pIC50 (converted).
Setting [2] is: Table 21, read-out: L-type inhibition pIC50 (converted).

SMILES strings stand for the structures. Like-named read-outs stand apart in the source and are kept apart here.

In the case of `CSc1nc(C)c(C(=O)NC/C=C/c2ccccc2)c(-c2cccc(Cl)c2)n1` [Example 1, 4-(3-chlorophenyl)-6-methyl-2-(methylthio)-N-(3-phenyl-2-propen-1-yl)-5-pyrimidinecarboxamide], the IC50 on L-type calcium channels (setting [1]) is 2510 nM. In addition, the “L-type inhibition pIC50” value on L-type calcium channels is 5.6. For the same compound, on N-type calcium channels, the inhibition at 10 µM stood at 52% and the IC50 is 1580 nM.

For the compound `CSc1nc(C)c(C(=O)NCCCc2ccccc2)c(-c2cccc(Cl)c2)n1` [Example 16, 4-(3-chlorophenyl)-6-methyl-2-(methylthio)-N-(3-phenylpropyl)-5-pyrimidinecarboxamide], the IC50 on L-type calcium channels (setting [1]) was 3160 nM. On L-type calcium channels, the “L-type inhibition pIC50” value is on record as 5.5. For the same compound, at N-type calcium channels, the inhibition at 10 µM amounted to 58% and the IC50 was 2000 nM.

In the case of `CSc1nc(C)c(C(=O)NCCCc2ccccc2)c(-c2ccc(C)cc2C)n1` [Example 93, 4-(2,4-dimethylphenyl)-6-methyl-2-(methylthio)-N-(3-phenylpropyl)-5-pyrimidinecarboxamide], the “Flinching (number)” value in the test on SD rats is 39 ± 11 number. In addition, the IC50 at L-type calcium channels (setting [2]) is 5010 nM. The inhibition at 10 µM at N-type calcium channels was found to be 63%.

On to `CCc1nc(C)c(C(=O)NCCCc2ccccc2)c(-c2cc(Cl)cc(Cl)c2)n1` [Example 103, 2-ethyl-4-(3,5-dichlorophenyl)-6-methyl-N-(3-phenylpropyl)-5-pyrimidinecarboxamide], for which the IC50 on L-type calcium channels (setting [2]) was 3980 nM. Further, on N-type calcium channels, the inhibition at 10 µM worked out at 74%.

Consider `CSc1nc(C)c(C(=O)NCCCc2ccccc2)c(-c2c(Cl)cccc2Cl)n1` [Example 110, 4-(2,6-dichlorophenyl)-6-methyl-2-(methylthio)-N-(3-phenylpropyl)-5-pyrimidinecarboxamide], for which the IC50 at L-type calcium channels (setting [2]) is 2510 nM. On N-type calcium channels, the inhibition at 10 µM was determined as 77%.

For the compound `Cc1nc(C)c(C(=O)N2CCNCC2)c(-c2cccc(Cl)c2)c1C(=O)OCCC(c1ccccc1)c1ccccc1` [Example 122, 4-(3-chlorophenyl)-2,6-dimethyl-5-(piperazine-1-carbonyl)nicotinic acid (3,3-diphenylpropyl) ester], the “Flinching (number)” value in the test with SD rats was 61 ± 16 number. Moreover, the IC50 on L-type calcium channels (setting [1]) was 1000 nM. In addition, at L-type calcium channels, the “L-type inhibition pIC50” value was 6.0. Moreover, at N-type calcium channels, the inhibition at 10 µM stood at 56% and the IC50 was 1580 nM.

For the compound `Cc1nc(C)c(C(=O)N2CCN(C)CC2)c(-c2cccc(Cl)c2)c1C(=O)OCCC(c1ccccc1)c1ccccc1` [Example 125, 4-(3-chlorophenyl)-2,6-dimethyl-5-(4-methylpiperazine-1-carbonyl)nicotinic acid (3,3-diphenylpropyl) ester], in the test on SD rats, the “Flinching (number)” value came out at 62 ± 25 number. In addition, the IC50 at L-type calcium channels (setting [2]) is 1260 nM. Moreover, the inhibition at 10 µM at N-type calcium channels turned out to be 70%.

As usually defined, the inhibition is the change of the read-out against control, counted positive when it falls.

For the origin of these results see patent US7288544B2, “Pyrimidine compounds useful as N-type calcium channel antagonists” (Ajinomoto Co., Inc., priority 2000, dated 2007).
